Assay results as given in patent US12251459B2, “Compositions, formulations, and methods for hair treatment” (Oddity Labs, LLC, priority 2022, dated 2025).

Key:
Assay type in all cases: cell-based
[1] = system: human hair follicle dermal papilla cells (hFDPC); assay: Human follicle dermal papilla cells (hFDPC) proliferation assay; details: hFDPCs supplemented with BIO, BMP-2 and FGFβ
Description: In Table 8, A represents less than 20% of increased proliferation of hFDPCs, B represents 20-40%, and C represents larger than 40% of increased proliferation of hFDPCs.

TK.6 lymphoblasts = assay: TK.6 micronucleus assay; details: 24 hr
Experimental: The safety/toxicology profiles of a compound or salt of the present disclosure was evaluated via a series of in vitro genotoxicity assays, including the SOS-chromotest to determine bacterial genotoxicity, and the TK.6 micronucleus assay to determine chromosomal damage and forward mutations. Standard reactive oxygen species (ROS) and caspase 3/7 assay were conducted to determine general cellular toxicity. Moreover, a series of sensitization tests were conducted to predict any potential skin sensitivity. These include the direct peptide reactivity assay to evaluate haptenization, the KeratinoSens reporter assay to determine potential sensitivity via the activation of a cytoprotective pathway, and an immunological assay using human immature monocyte-derived dendritic cells to evaluate any potential immunogenicity.
TK.6 lymphoblasts are a well-studied cell line commonly used for gene mutation analyses. They are heterozygous for the thymidine kinase gene (TK) and enable the detection of forward mutations and chromosomal damage, which manifests as micronuclei and are detectable via flow cytometry.
TK.6 cells were dosed with the example compounds or a vehicle control (0.1% v/v DMSO) and cultured with or without S9 metabolic activation for 24 hr. […] Methyl methanesulfonate, a known genotoxic, alkylating agent was used as a positive control for micronuclei detection.
The micronucleus assay was also performed to determine if the compounds are genotoxic by evaluating the presence of micronuclei. […] In combination. […] I-17 elicited genotoxicity at >3.125 μg/mL.

HepG2 cells = assay: Caspase 3/7 activity in HepG2 cells; details: HepG2, >2-log concentration range, versus % v/v-matched DMSO
Experimental: (§1) Cells were treated with either the example compounds or vehicle control containing correspondingly % v/v-matched amounts of DMSO spanning a >2-log concentration range. Data represents mean±s.d. and representative of at least 2 experimental replicates.
as §1, with “HepG2 cells are an immortalized liver cell line commonly used to study apoptosis induced by small molecules. Cells” for “Cells”

SMILES | Percent Increase Proliferation of hFDPCs (%) [1] | concentration at which genotoxicity was elicited in TK.6 micronuclei assay (TK.6 lymphoblasts) [ng/mL] | Normalized caspase 3/7 activity (HepG2 cells)
C=CCc1cc(/C=C2\C(=O)NC(=S)N(c3ccc(OC)cc3)C2=O)cc(OC)c1O [I-17] | C (C represents larger than 40% of increased proliferation of hFDPCs) | > 3125 | significant caspase-3/7 activation at the highest concentration
COc1ccc(S(=O)(=O)N2CCC(C(=O)N3CCN(Cc4ccc5c(c4)OCO5)CC3)CC2)cc1C [VI-3, Methanone, [4-(1,3-benzodioxol-5-ylmethyl)-1-piperazinyl][1-[(4-methoxy-3-methylphenyl)sulfonyl]-4-piperidinyl]-] | B (B represents 20-40%) |  | 
Cc1ccc(S(=O)(=O)N2CCC(C(=O)N3CCN(Cc4nc5ccccc5s4)CC3)CC2)cc1 [VI-4, Methanone, [4-(2-benzothiazolylmethyl)-1-piperazinyl][1-[(4-methylphenyl)sulfonyl]-4-piperidinyl]-] | A (A represents less than 20% of increased proliferation of hFDPCs) |  | 
COc1ccc(S(=O)(=O)Nc2ccc(S(=O)(=O)NCCc3ccccc3)cc2)cc1 [VI-5, Benzenesulfonamide, 4-methoxy-N-[4-[[(2-phenylethyl)amino]sulfonyl]phenyl]-] | A (A represents less than 20% of increased proliferation of hFDPCs) |  | 
O=C(O)CC1SC(NN=Cc2ccc(OS(=O)(=O)c3ccc([N+](=O)[O-])cc3)cc2)=NC1=O (stereo not drawn) [VI-6, 5-Thiazoleacetic acid, 4,5-dihydro-2-[2-[[4-[[(4-nitrophenyl)sulfonyl]oxy]phenyl]methylene] hydrazinyl]-4-oxo-] | A (A represents less than 20% of increased proliferation of hFDPCs) |  | 
CCS(=O)(=O)n1[nH]c(-c2ccco2)nc1=N [VII-2, 1H-1,2,4-Triazol-5-amine, 1-(ethylsulfonyl)-3-(2-furanyl)-] | A (A represents less than 20% of increased proliferation of hFDPCs) |  | 
CCn1c(SCC(=O)c2ccc(S(=O)(=O)N3CCCC3)cc2)nnc1-c1ccco1 [VII-4, Ethanone, 2-[[4-ethyl-5-(2-furanyl)-4H-1,2,4-triazol-3-yl]thio]-1-[4-(1-pyrrolidinylsulfonyl)phenyl]-] | A (A represents less than 20% of increased proliferation of hFDPCs) |  | 
NC(=O)c1ccc(NC(=O)CCCc2nc(-c3ccccc3)no2)cc1 [VII-5, 1,2,4-Oxadiazole-5-butanamide, N-[4-(aminocarbonyl)phenyl]-3-phenyl-] | A (A represents less than 20% of increased proliferation of hFDPCs) |  | 
CCOC(=O)c1cnn(-c2ccc(C(=O)Nc3ccc(C(=O)NCC(=O)OC)cc3)cc2)c1C [VII-6, 1H-Pyrazole-4-carboxylic acid, 1-[4-[[[4-[[(2-methoxy-2-oxoethyl)amino]carbonyl]phenyl]amino]carbonyl]phenyl]-5-methyl-, ethyl ester] | A (A represents less than 20% of increased proliferation of hFDPCs) |  | 
CCOC(=O)c1cnn(-c2ccc(C(=O)Nc3ccc(S(=O)(=O)CC)cc3)cc2)c1C [VII-7, 1H-Pyrazole-4-carboxylic acid, 1-[4-[[[4-(ethylsulfonyl)phenyl]amino]carbonyl]phenyl]-5-methyl-, ethyl ester] | B (B represents 20-40%) |  | 
CCOC(=O)c1cnn(-c2cccc(NC(=O)C3CCN(c4ncccn4)CC3)c2)c1C [VII-8, 1H-Pyrazole-4-carboxylic acid, 5-methyl-1-[3-[[[1-(2-pyrimidinyl)-4-piperidinyl]carbonyl]amino]phenyl]-, ethyl ester] | A (A represents less than 20% of increased proliferation of hFDPCs) |  | 
NC1=NC2(CCCCCC2)n2c(nc3ccccc32)N1 [VII-9, Spiro[cycloheptane-1, 4′(1′H)-[1,3,5]triazino[1,2-a]benzimidazol]-2′-amine] | B (B represents 20-40%) |  | 
O=C1CNCc2[nH]c3ccccc3c2N1c1ccccc1 [VII-10, 1,4-Diazepino[6,5-b] indol-2(1H)-one, 3,4,5,6-tetrahydro-1-phenyl-] | B (B represents 20-40%) |  | 
NC1=NC2(CCCCC2)n2c(nc3ccccc32)N1 [VII-11, Spiro[cyclohexane-1, 4′(3′H)-[1,3,5]triazino[1,2-a]benzimidazol]-2′-amine] | A (A represents less than 20% of increased proliferation of hFDPCs) |  | 
Cc1cc(C)cc(N2Cc3ccccc3C2)c1 [VII-12, 1H-Isoindole, 2-(3,5-dimethylphenyl)-2,3-dihydro-] | A (A represents less than 20% of increased proliferation of hFDPCs) |  | 
Oc1c2c(c(O)n1C1CCCCC1)CC=CC2 [VII-13, 1H-Isoindole-1,3(2H)-dione, 2-cyclohexyl-3a,4,7,7a-tetrahydro-] | A (A represents less than 20% of increased proliferation of hFDPCs) |  | 
Cc1cccc(CN2CCN(c3ncccn3)CC2)c1 [VII-15, Pyrimidine, 2-[4-[(3-methylphenyl)methyl]-1-piperazinyl]-] | A (A represents less than 20% of increased proliferation of hFDPCs) |  | 
COc1ccc(N(CC(=O)N2CCN(c3ccccc3OC)CC2)S(=O)(=O)c2ccccc2)cc1 [VII-16, Benzenesulfonamide, N-(4-methoxyphenyl)-N-[2-[4-(2-methoxyphenyl)-1-piperazinyl]-2-oxoethyl]-] | A (A represents less than 20% of increased proliferation of hFDPCs) |  | 
O=C1Nc2ccccc2SC1CC(=O)N1CCN(C(c2ccccc2)c2ccccc2)CC1 (stereo not drawn) [VII-17, 2H-1,4-Benzothiazin-3(4H)-one, 2-[2-[4-(diphenylmethyl)-1-piperazinyl]-2-oxoethyl]-] | A (A represents less than 20% of increased proliferation of hFDPCs) |  | 
O=C(c1cccs1)N1CCN(C(=O)c2cccc3ccccc23)CC1 [VII-18, Piperazine, 1-(1-naphthalenylcarbonyl)-4-(2-thienylcarbonyl)-(9CI)] | A (A represents less than 20% of increased proliferation of hFDPCs) |  | 
CC12C=CC(=O)C=C1CCC1C2C(O)CC2(C)C1CC[C@]2(O)C(=O)COC(=O)CCC(=O)O (stereo partly drawn) [VII-19, Pregna-1,4-diene-3, 20-dione, 21-(3-carboxy-1-oxopropoxy)-11,17-dihydroxy-, (11β)-] | A (A represents less than 20% of increased proliferation of hFDPCs) |  | 
CCN(Cc1ccccc1)C(=O)c1ccc(C(=O)N(CC)Cc2ccccc2)cc1 [VII-20, 1,4-Benzenedicarboxamide, N^1,N^4-diethyl-N^1, N^4-bis(phenylmethyl)-] | A (A represents less than 20% of increased proliferation of hFDPCs) |  | 
Cc1ccc(-c2nn(CC(=O)NCCc3c(C)n(C)c4ccccc34)c(=O)c3ccccc23)cc1S(=O)(=O)N1CCOCC1 [VII-21, 2(1H)-Phthalazineacetamide, N-[2-(1,2-dimethyl-1H-indol-3-yl)ethyl]-4-[4-methyl-3-(4-morpholinylsulfonyl)phenyl]-1-oxo-] | A (A represents less than 20% of increased proliferation of hFDPCs) |  | 
COc1ccc(CC(=O)Nc2sc3c(c2C(=O)Nc2cccc([N+](=O)[O-])c2)CCC(C)C3)cc1 (stereo not drawn) [VII-22, Benzo[b]thiophene-3-carboxamide, 4,5,6,7-tetrahydro-2-[[2-(4-methoxyphenyl)acetyl]amino]-6-methyl-N-(3-nitrophenyl)-] | A (A represents less than 20% of increased proliferation of hFDPCs) |  | 
COC(=O)c1cccc(NC(=O)c2cc(NC(=O)c3ccccc3)cc(C(=O)Nc3cccc(C(=O)OC)c3)c2)c1 [VII-23, Benzoic acid, 3,3′-[[5-(benzoylamino)-1,3-phenylene]bis(carbonylimino)] bis-, dimethyl ester (9CI)] | B (B represents 20-40%) |  | 
Cc1ccc(-c2nc3ncccc3o2)cc1NC(=S)NC(=O)c1ccc(C(C)(C)C)cc1 [VII-24, Benzamide, 4-(1,1-dimethylethyl)-N-[[(2-methyl-5-oxazolo[4,5-b]pyridin-2-ylphenyl)amino]thioxomethyl]-] | A (A represents less than 20% of increased proliferation of hFDPCs) |  | 
CC1(c2ccccc2)NC(=O)N(Cc2cc(=O)n3ccccc3n2)C1=O (stereo not drawn) [VII-25, 2,4-Imidazolidinedione, 5-methyl-3-[(4-oxo-4H-pyrido[1,2-a]pyrimidin-2-yl)methyl]-5-phenyl-] | B (B represents 20-40%) |  | 
Cc1ccccc1Cn1nc(C)c(NC(=O)c2csc3ccccc23)c1C [VII-26, Benzo[b]thiophene-3-carboxamide, N-[3,5-dimethyl-1-[(2-methylphenyl)methyl]-1H-pyrazol-4-yl]-] | A (A represents less than 20% of increased proliferation of hFDPCs) |  | 
